Assay results published in BindingDB's records for doi:10.1021/bi060184f (Abbott Laboratories, 2006).

Key:
Dipeptidyl peptidase 8 = Dipeptidyl peptidase 8 (Homo sapiens, UniProt Q6V1X1); assay: DPP Inhibition Assay; conditions: pH 7.5; 22 °C
Dipeptidyl peptidase 4 = Dipeptidyl peptidase 4 (Homo sapiens, UniProt P27487); assay: DPP Inhibition Assay; conditions: pH 7.5; 22 °C
Sequence of Dipeptidyl peptidase 4 (P27487 whole entry): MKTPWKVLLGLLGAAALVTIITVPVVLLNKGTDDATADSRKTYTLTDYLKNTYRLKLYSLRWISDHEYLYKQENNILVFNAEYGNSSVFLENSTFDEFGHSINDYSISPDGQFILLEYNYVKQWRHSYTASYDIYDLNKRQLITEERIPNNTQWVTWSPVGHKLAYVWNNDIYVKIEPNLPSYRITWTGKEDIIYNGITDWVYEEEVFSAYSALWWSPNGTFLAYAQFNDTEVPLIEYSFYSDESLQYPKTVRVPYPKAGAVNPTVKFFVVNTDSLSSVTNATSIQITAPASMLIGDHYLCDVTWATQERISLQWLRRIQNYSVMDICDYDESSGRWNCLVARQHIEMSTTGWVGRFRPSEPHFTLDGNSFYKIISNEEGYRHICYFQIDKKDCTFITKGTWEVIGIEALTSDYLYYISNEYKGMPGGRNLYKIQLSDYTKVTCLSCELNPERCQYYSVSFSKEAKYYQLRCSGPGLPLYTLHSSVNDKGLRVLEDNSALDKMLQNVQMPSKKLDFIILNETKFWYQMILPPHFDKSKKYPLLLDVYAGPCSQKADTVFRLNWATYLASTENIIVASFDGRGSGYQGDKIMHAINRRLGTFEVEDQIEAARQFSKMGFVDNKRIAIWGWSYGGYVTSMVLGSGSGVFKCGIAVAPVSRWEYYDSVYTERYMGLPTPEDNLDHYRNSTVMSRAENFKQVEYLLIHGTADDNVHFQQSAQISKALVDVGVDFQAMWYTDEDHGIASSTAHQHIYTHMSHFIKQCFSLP

Sequence of Dipeptidyl peptidase 8 (Q6V1X1 whole entry): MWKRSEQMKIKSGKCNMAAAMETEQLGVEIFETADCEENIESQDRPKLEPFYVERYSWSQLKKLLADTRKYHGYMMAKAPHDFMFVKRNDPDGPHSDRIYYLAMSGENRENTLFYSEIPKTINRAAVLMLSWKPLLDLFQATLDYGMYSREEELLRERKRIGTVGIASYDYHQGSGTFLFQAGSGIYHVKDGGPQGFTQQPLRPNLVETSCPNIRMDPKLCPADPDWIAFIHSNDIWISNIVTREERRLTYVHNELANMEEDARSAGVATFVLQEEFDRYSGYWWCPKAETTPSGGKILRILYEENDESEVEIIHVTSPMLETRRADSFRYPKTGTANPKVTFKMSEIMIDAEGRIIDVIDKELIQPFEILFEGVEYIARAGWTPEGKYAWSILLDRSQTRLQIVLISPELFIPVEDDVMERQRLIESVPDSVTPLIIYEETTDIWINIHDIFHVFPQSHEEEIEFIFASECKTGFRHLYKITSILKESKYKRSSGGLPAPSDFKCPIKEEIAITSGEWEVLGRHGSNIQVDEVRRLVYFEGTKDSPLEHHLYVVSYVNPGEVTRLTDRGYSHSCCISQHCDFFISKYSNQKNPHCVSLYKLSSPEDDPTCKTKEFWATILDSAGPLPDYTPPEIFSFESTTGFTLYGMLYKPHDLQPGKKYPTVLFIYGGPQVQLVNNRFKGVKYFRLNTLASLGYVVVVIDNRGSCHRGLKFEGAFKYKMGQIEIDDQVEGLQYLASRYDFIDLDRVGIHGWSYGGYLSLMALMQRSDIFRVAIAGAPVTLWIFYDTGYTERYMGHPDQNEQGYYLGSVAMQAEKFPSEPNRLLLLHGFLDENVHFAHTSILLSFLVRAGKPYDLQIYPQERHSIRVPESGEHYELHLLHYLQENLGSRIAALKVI

| Structure (SMILES) | Ki (Dipeptidyl peptidase 8) [µM] | Ki (Dipeptidyl peptidase 4) [µM] |
| --- | --- | --- |
| CC#C[C@H]1CC[C@@H](C#N)N1C(=O)[C@@H](N)C1CCCC1 [(2S,5R)-1-((2S)-2-amino-2-cyclopentylethanoyl)-5-prop-1-ynylpyrrolidine-2-carbonitrile] | > 30 |  |
| Cn1c(=O)c2c(nc(N3CCC[C@@H](N)C3)n2Cc2ccccc2C#N)n(C)c1=O [Xanthine mimetic compound 6] | > 30 | 0.002 |
